Data published in patent US20030165853A1, “Antisense imaging of gene expression of the brain in vivo” (The Regents of the University of California Office of …, priority 2000, published 2003).

Legend:
[1] = mouse, in vivo
Procedure: (§1) Adult male BALB/c mice were divided into 5 groups of 3 mice each for the pharmacokinetic study. The mice were anesthetized with an intraperitoneal injection of ketamine (100 mg/kg) and xylazine (2 mg/kg). The injection solution contained 5 μCi of [^125I]-HD-PNA with or without conjugation to 2 μg of 8D3-SA in 0.01 M PBS/pH 7.4, and a total volume of 50 μl was administered via the jugular vein of each mouse. Groups of 3 mice each were sacrificed at 0.25, 2, 5, 15, and 60 min after the isotope injection and arterial blood was sampled from the aorta. After spinning the blood samples, the collected supernatant (serum) was counted for [^125I]-radioactivity using a γ-counter (Beckman Instruments, Inc., Fullerton, Calif.). An aliquot of serum was precipitated with cold 10% TCA, and the fraction of total serum radioactivity that was TCA precipitated was determined. The brain and peripheral organs (liver, kidney, heart, lung, and spleen) were removed from each mouse at 60 min after the isotope administration and total [^125I]-radioactivity in the organ was measured.
The organ permeability-surface area (PS) product of either the unconjugated [^125I]-HD-PNA, or the [^125I]-HD-PNA conjugated to 8D3/SA, was calculated as follows: [formula] […]
The brain delivery of the compound was expressed as percentage of injected dose (ID)/g brain, and was calculated as follows: […]

human HD exon 1 = assay: Translation arrest (combined in vitro transcription/translation of HD exon 1); format: biochemical; details: 5-50 μM antisense agent, [3H]-leucine incorporation
Procedure: The hybridization of the antisense HD-PNA to the HD transcript was determined using a combination of transcription and translation that mimics in vivo conditions as previously described (Boado et al. (2000) J. Pharmacol. Exp. Ther., 295: 239-243). The cDNA containing the human HD exon 1 was sublconed into the Bluescript KS+plasmid, between either T3 or T7 RNA polymerase promoters, and this plasmid is designated clone 839, as described previously (Id). Transcription/translation of human HD exon 1 clone 839 was performed with 0.2 μg clone 839 plasmid DNA in the presence of T3 RNA polymerase, 5 μCi [^3H]-leucine, and 50% v/v rabbit reticulocyte lysate using the T3-TNT translation system (Promega, Madison, Wis.), as described previously (Id). Dose response studies with newly synthesized PNAs were performed and compared with a positive control antisense phosphodiester-ODN, designated ODN-III, as described (Id). Samples were incubated for 30 min at 30 ° C., and incorporation of [^3H]-leucine into HD exon 1 protein was analyzed by trichloroacetic acid (TCA) precipitation, and data expressed as percent of control, which lacked any added PNA or ODN. The HD exon 1 insert is 10% of the total plasmid, or about […] per 12.5 μL reaction. Since the TNT produces 10-30 RNA copies per plasmid, the final concentration of the HD RNA in the TNT reaction is approximately 1 μM. […]

HD mRNA = assay: HD RNase protection assay; format: binding, human; details: RNase T1/A digestion, PAGE autoradiography
Procedure: The sense RNA was synthesized with T3 RNA polymerase following linearization of the plasmid with EcoRI. The transcribed RNA was radiolabeled with [^32Pα]ATP to a specific activity of 0.22 μCi/pmol, as previously described (Boado and Pardridge (1994) Bioconj. Chem., 6: 406-410). For the RNAse protection assay, 0.6 pmol of biotinylated HD-PNA or biotinylated luciferase-PNA, with or without conjugation to 6.4 pmol of MAb-SA, was added to 10^5 CPM of [^32P]-labeled sense HD RNA (0.2 pmol) in 3 μl buffer (80 mM NaCl, 7 mM phosphate buffer, pH=7.5, 0.1% BSA), and annealed for 30 minutes at 42° C. Then 20 units RNAse Ti and 2.5 μg RNAse A were added to the samples in 17 μl of RNAse digestion buffer (0.3 M NaCl, 10 mM TRIS pH=7.5, 4 mM EDTA, 0.02% tRNA, 0.02% BSA) and incubated for 30 min at 37° C. RNA fragments were analyzed by 7 M urea/20% polyacrylamide gel electrophoresis following by autoradiography as described by Pardridge et al. (1995) Proc. Natl. Acad. Sci., USA, 92:5592-5596. Labeled RNA and PNAs were heat denatured for 2 minutes at 95° C. and then incubated on ice for 2 minutes immediately before the experiment or conjugation to MAb-SA.

[2] = mouse, in vivo, iv
Procedure: as §1
Pharmacokinetic parameters were determined by fitting the serum TCA-precipitable radioactivity data to a biexponential equation with a weighting factor of [1/A(t)]^2 using a derivative-free nonlinear regression analysis (PARBMDP, Biomedical Computer P-Series, developed at UCLA Health Science Computing Facilities).
where A(t)=% injected dose (ID)/ml serum at a given time (t).

Question: Which “BBB PS product” value [1] does the source give for “[^125I]-PNA: biotinylated 16-mer PNA complementary to nucleotides −1 to +15 of human HD exon 1, Tyr-Lys, amidated carboxyl terminus; radioiodinated (CTTCCATTTTACCAAC; all peptide nucleic acid (PNA); biotinylated, Tyr-Lys added, amidated C-terminus, radioiodinated, positions not given here)” here?
Answer: < 0.3 µL/min/g

Question: And the “inhibition of cell free translation of HD exon 1 protein” value (human HD exon 1)?
Answer: inhibits the cell free translation

Question: What about the “hybridization to HD mRNA (RNase protected fragment)” value (HD mRNA) of the same substance?
Answer: specifically hybridizes to the target mRNA

Question: What about the A1 [2] of the same substance?
Answer: 32 ± 2 % ID/ml

Question: What about the A2 [2] of the same substance?
Answer: 6.3 ± 0.7 % ID/ml

Question: And the “AUC (60 min)” value [2]?
Answer: 308 ± 36 % ID · min/ml

Question: What about the “AUC (∞)” value [2] of the same substance?
Answer: 399 ± 49 % ID · min/ml

Question: What about the K1 [2] of the same substance?
Answer: 0.37 ± 0.04 min⁻¹

Question: What about the K2 [2] of the same substance?
Answer: 0.0206 ± 0.0014 min⁻¹

Question: What about the VSS [2] of the same substance?
Answer: 0.374 ± 0.042 L/kg

Question: What about the “t½^1” value [2] of the same substance?
Answer: 1.9 ± 0.2 min

Question: And the “t½^2” value [2]?
Answer: 34 ± 3 min
